Some test systems named below: A498; A549; ACHN; CAKI-1; EKVX; HCT-15; HT-29; LOX IMVI; M14; Malme-3M; NCI-H23; RPMI-8226; RXF 393; SF-295; SK-MEL-2; SK-OV-3; SN12C; SR; T47D; TK-10.
Common to all, as to assay: inhibition of tumour cell growth, NCI panel, 48 h

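Cells were grown in 96-well plates and exposed to each compound for 48 hours at five concentrations; endpoints were interpolated linearly between bracketing concentrations, or set to the highest concentration if not reached. Here, GI50 denotes the concentration required for 50% inhibition of growth.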 The source made the active and inactive calls. Rule as the data show it: active = GI50 up to about 1.1 µM and inactive = higher.

Take `Oc1ccc(-c2c3ccccc3c(-c3ccc(OCCBr)cc3)c3ccccc23)cc1`: the GI50 in the assay on A498 was 23.2 µM (inactive); in the assay on A549, 28.4 µM (inactive); with ACHN, 29.1 µM (inactive); in the assay with CAKI-1 it was 27.4 µM (inactive); in the assay with EKVX, 32.9 µM (inactive); in the assay on HCT-15, 30.7 µM. The GI50 in the assay with HT-29 was 19.6 µM (inactive); in the assay with LOX IMVI, 16.9 µM (inactive); in the assay with M14 it was 21 µM (inactive); in the assay on Malme-3M, 14.7 µM (inactive); in the assay on NCI-H23 it was 15.6 µM (inactive); in the assay with RPMI-8226, 31.1 µM (inactive). The GI50 with RXF 393 was 24.7 µM (inactive); in the assay on SF-295 it was 16 µM (inactive); with SK-MEL-2 it was 22.2 µM (inactive); with SK-OV-3, 52.7 µM (inactive); in the assay on SN12C, 22.1 µM (inactive); in the assay on SR, 31.8 µM (inactive). Also, the GI50 with T47D was 35.7 µM (inactive); in the assay with TK-10, 34.5 µM (inactive).

Consider `Cc1nn2c(=O)c([N+](=O)[O-])c(/C=C/c3ccccc3)nc2s1`, for which the GI50 in the assay on A498 is 10.4 µM (inactive); with A549, 5.46 µM (inactive); in the assay on ACHN, 5.32 µM (inactive); in the assay on CAKI-1 it was 7.78 µM (inactive); in the assay with EKVX, 4.61 µM (inactive); in the assay with HCT-15, 3.08 µM. Besides, the GI50 in the assay on HT-29 was 3.04 µM (inactive); in the assay with LOX IMVI, 1.57 µM (inactive); in the assay on M14, 6.81 µM (inactive); with Malme-3M, 13.3 µM (inactive); with NCI-H23, 11 µM (inactive); in the assay on RPMI-8226, 2.43 µM (inactive). The GI50 in the assay with RXF 393 was 3.41 µM (inactive); in the assay with SF-295, 17.3 µM (inactive); in the assay with SK-MEL-2, 3.1 µM (inactive); in the assay on SK-OV-3 it was 7.33 µM (inactive); in the assay on SN12C it was 5.27 µM (inactive); with SR it was 2.43 µM (inactive). For the same compound, the GI50 in the assay on T47D is 3.72 µM (inactive); in the assay on TK-10 it was 7.31 µM (inactive).

Regarding `C=C1C(C)C2C(Cc3ccccc3)NC(=O)C23C(OC(C)=O)/C=C/C(C)(O)CC(C)C/C=C/C3C1O` (stereo not given), the GI50 in the assay with A498 was 0.117 µM (active); in the assay on A549, 0.603 µM (active); in the assay on ACHN, 0.492 µM (active); in the assay with CAKI-1, 0.0288 µM (active); in the assay on EKVX, 1.72 µM (inactive); in the assay on HCT-15 it was 2.7 µM. For the same compound, the GI50 in the assay with HT-29 is 0.138 µM (active); with LOX IMVI, 0.0593 µM (active); in the assay on M14, 99.1 µM (inactive); with Malme-3M, 28.4 µM (inactive); in the assay with NCI-H23, 13.8 µM (inactive); in the assay with RPMI-8226, 9.42 µM (inactive). Also, the GI50 in the assay on RXF 393 was 0.0394 µM (active); with SF-295 it was 0.21 µM (active); with SK-MEL-2, 8.97 µM (inactive); in the assay with SK-OV-3, 0.242 µM (active); in the assay on SN12C it was 44.3 µM (inactive); in the assay on SR it was 27.5 µM (inactive). Also, the values for the GI50 in the assay with T47D and with TK-10 were > 100 µM (inactive) and 60.1 µM (inactive), respectively.

In the case of `c1cc(-c2ccc(-c3nc4ccc(C5=NCCN5)cc4s3)s2)ccc1C1=NCCN1`, the GI50 in the assay on A498 was 0.719 µM (active); in the assay with A549, 0.166 µM (active); in the assay with ACHN, 0.562 µM (active); with CAKI-1, 1.51 µM (inactive); in the assay on EKVX it was 1.28 µM (inactive); with HCT-15 it was 2.17 µM. The GI50 is 0.596 µM (active) in the assay on HT-29; 0.262 µM (active) in the assay on LOX IMVI; 0.912 µM (active) in the assay with M14; 1.02 µM (active) with Malme-3M; 0.813 µM (active) with NCI-H23; 0.295 µM (active) with RPMI-8226. For the same compound, the GI50 in the assay on RXF 393 was 0.152 µM (active); with SF-295, 0.301 µM (active); with SK-MEL-2, 1.27 µM (inactive); in the assay with SK-OV-3, 0.711 µM (active); in the assay on SN12C, 0.172 µM (active); with SR, 0.231 µM (active). The values for the GI50 in the assay with T47D and in the assay on TK-10 were 0.483 µM (active) and 0.804 µM (active), respectively.

In the case of `C[C@@H]1CC[C@@]2(C)[C@H](C)/C(=C\COC(=O)/C=C/c3ccc(O)c(O)c3)CC[C@@]12C` [NAVICULYL CAFFEATE], the GI50 in the assay on A498 was 12.9 µM (inactive); in the assay on A549, 7.62 µM (inactive); in the assay with ACHN, 4.19 µM (inactive); in the assay on CAKI-1 it was 4.58 µM (inactive); with EKVX, 15 µM (inactive); in the assay on HCT-15, 4.1 µM. Besides, the GI50 in the assay on HT-29 is 3.94 µM (inactive); in the assay on LOX IMVI, 6.01 µM (inactive); in the assay with M14 it was 8.18 µM (inactive); with Malme-3M, 14 µM (inactive); with NCI-H23, 9.23 µM (inactive); in the assay on RPMI-8226, 2.21 µM (inactive). Besides, the GI50 is 15.7 µM (inactive) in the assay with RXF 393; 8.87 µM (inactive) in the assay with SF-295; 12.6 µM (inactive) with SK-MEL-2; 12.4 µM (inactive) in the assay on SK-OV-3; 4.55 µM (inactive) in the assay with SN12C; 2.41 µM (inactive) with SR. Further, the GI50 was 12.6 µM (inactive) in the assay with T47D and 3.5 µM (inactive) in the assay on TK-10.
